# Laboratory results taken from PubChem BioAssay (NCI).
#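 Step 1: Grow cells in 96-well plates. Step 2: Expose to compound for 48 hours at 5 concentrations. Step 3: Interpolate endpoints linearly; if unreached, use highest concentration. At the GI50, growth is halved. TGI is the concentration that stops growth completely.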
# Assays:
# Assay in all cases: growth of human tumour cells (NCI), 48 h
# RPMI-8226 leukemia = test system: RPMI-8226 leukemia
# CAKI-1 renal = test system: CAKI-1 renal
# SF-268 CNS = test system: SF-268 CNS
# NCI/ADR-RES ovarian = test system: NCI/ADR-RES ovarian
# SNB-19 CNS = test system: SNB-19 CNS
# MCF7 breast = test system: MCF7 breast
# U251 CNS = test system: U251 CNS
# HT29 colon = test system: HT29 colon
# MALME-3M melanoma = test system: MALME-3M melanoma
# HOP-62 NSCLC = test system: HOP-62 NSCLC
# NCI-H23 lung = test system: NCI-H23 lung
# HCT-116 colon = test system: HCT-116 colon
# UACC-257 melanoma = test system: UACC-257 melanoma
# NCI-H522 lung = test system: NCI-H522 lung
# NCI-H226 lung = test system: NCI-H226 lung
# HCT-15 colon = test system: HCT-15 colon
# LOX IMVI melanoma = test system: LOX IMVI melanoma
# IGROV1 ovarian = test system: IGROV1 ovarian
# SK-OV-3 ovarian = test system: SK-OV-3 ovarian
# SF-539 CNS = test system: SF-539 CNS
# MDA-MB-231 breast = test system: MDA-MB-231 breast
# T-47D breast = test system: T-47D breast
# SK-MEL-2 melanoma = test system: SK-MEL-2 melanoma
# HCC-2998 colon = test system: HCC-2998 colon
# PC-3 prostate = test system: PC-3 prostate
# DU-145 prostate = test system: DU-145 prostate
# K-562 leukemia = test system: K-562 leukemia
# OVCAR-4 ovarian = test system: OVCAR-4 ovarian
# RXF 393 renal = test system: RXF 393 renal
# UO-31 renal = test system: UO-31 renal
# SF-295 CNS = test system: SF-295 CNS
# ACHN renal = test system: ACHN renal
# TK-10 renal = test system: TK-10 renal
# KM12 colon = test system: KM12 colon
# SR leukemia = test system: SR leukemia
# HS 578T breast = test system: HS 578T breast
# SK-MEL-28 melanoma = test system: SK-MEL-28 melanoma
# 786-0 renal = test system: 786-0 renal
# SK-MEL-5 melanoma = test system: SK-MEL-5 melanoma
# A498 renal = test system: A498 renal
# SNB-75 CNS = test system: SNB-75 CNS
# SW-620 colon = test system: SW-620 colon
# COLO 205 colon = test system: COLO 205 colon
# SN12C renal = test system: SN12C renal
# HOP-92 NSCLC = test system: HOP-92 NSCLC
# M14 melanoma = test system: M14 melanoma
# UACC-62 melanoma = test system: UACC-62 melanoma
# OVCAR-5 ovarian = test system: OVCAR-5 ovarian
# A549 NSCLC = test system: A549 NSCLC
# BT-549 breast = test system: BT-549 breast
# MOLT-4 leukemia = test system: MOLT-4 leukemia
# CCRF-CEM leukemia = test system: CCRF-CEM leukemia
# NCI-H460 lung = test system: NCI-H460 lung
# OVCAR-8 ovarian = test system: OVCAR-8 ovarian
# MDA-MB-435 = test system: MDA-MB-435
compound,measurement,setting,value
CCCc1ccc(S(=O)(=O)N[C@H]2CC[C@H]3[C@@H]4CCc5cc(O)ccc5[C@H]4CC[C@]23C)cc1,GI50,RPMI-8226 leukemia,2.9 µM
same,TGI,RPMI-8226 leukemia,10 µM
same,GI50,CAKI-1 renal,3.45 µM
same,TGI,CAKI-1 renal,11.9 µM
same,GI50,SF-268 CNS,3.44 µM
same,TGI,SF-268 CNS,13.4 µM
same,GI50,NCI/ADR-RES ovarian,2.75 µM
same,TGI,NCI/ADR-RES ovarian,10.6 µM
same,GI50,SNB-19 CNS,4.2 µM
same,TGI,SNB-19 CNS,15.9 µM
same,GI50,MCF7 breast,2.66 µM
same,TGI,MCF7 breast,7.29 µM
same,GI50,U251 CNS,1.95 µM
same,TGI,U251 CNS,4.25 µM
same,GI50,HT29 colon,3.19 µM
same,TGI,HT29 colon,10.2 µM
same,GI50,MALME-3M melanoma,2.82 µM
same,TGI,MALME-3M melanoma,8.07 µM
same,GI50,HOP-62 NSCLC,4.65 µM
same,TGI,HOP-62 NSCLC,15.8 µM
same,GI50,NCI-H23 lung,3.31 µM
same,TGI,NCI-H23 lung,14.6 µM
same,GI50,HCT-116 colon,1.78 µM
same,TGI,HCT-116 colon,3.27 µM
same,GI50,UACC-257 melanoma,3.83 µM
same,TGI,UACC-257 melanoma,15.7 µM
same,GI50,NCI-H522 lung,2.32 µM
same,TGI,NCI-H522 lung,9.09 µM
same,GI50,NCI-H226 lung,1.57 µM
same,TGI,NCI-H226 lung,3.15 µM
same,GI50,HCT-15 colon,2.26 µM
same,TGI,HCT-15 colon,6.45 µM
same,GI50,LOX IMVI melanoma,1.72 µM
same,TGI,LOX IMVI melanoma,3.17 µM
same,GI50,IGROV1 ovarian,3.76 µM
same,TGI,IGROV1 ovarian,14.3 µM
same,GI50,SK-OV-3 ovarian,3.65 µM
same,TGI,SK-OV-3 ovarian,12.4 µM
same,GI50,SF-539 CNS,2.12 µM
same,TGI,SF-539 CNS,4.46 µM
same,GI50,MDA-MB-231 breast,2.29 µM
same,TGI,MDA-MB-231 breast,6.21 µM
same,GI50,T-47D breast,3.54 µM
same,TGI,T-47D breast,10.8 µM
same,GI50,SK-MEL-2 melanoma,2.72 µM
same,TGI,SK-MEL-2 melanoma,7.12 µM
same,GI50,HCC-2998 colon,4 µM
same,TGI,HCC-2998 colon,13.7 µM
same,GI50,PC-3 prostate,2.52 µM
same,TGI,PC-3 prostate,11.7 µM
same,GI50,DU-145 prostate,4.04 µM
same,TGI,DU-145 prostate,14 µM
same,GI50,K-562 leukemia,3.06 µM
same,TGI,K-562 leukemia,12 µM
same,GI50,OVCAR-4 ovarian,2.23 µM
same,TGI,OVCAR-4 ovarian,9.57 µM
same,GI50,RXF 393 renal,1.67 µM
same,TGI,RXF 393 renal,4.42 µM
same,GI50,UO-31 renal,2.23 µM
same,TGI,UO-31 renal,8.78 µM
same,GI50,SF-295 CNS,3.06 µM
same,TGI,SF-295 CNS,10.9 µM
same,GI50,ACHN renal,2.57 µM
same,TGI,ACHN renal,8.06 µM
same,GI50,TK-10 renal,3.8 µM
same,TGI,TK-10 renal,13.7 µM
same,GI50,KM12 colon,2.68 µM
same,TGI,KM12 colon,7.81 µM
same,GI50,SR leukemia,2.53 µM
same,TGI,SR leukemia,8.06 µM
same,GI50,HS 578T breast,3.33 µM
same,TGI,HS 578T breast,12.9 µM
same,GI50,SK-MEL-28 melanoma,2.45 µM
same,TGI,SK-MEL-28 melanoma,6.33 µM
same,GI50,786-0 renal,3.02 µM
same,TGI,786-0 renal,9.16 µM
same,GI50,SK-MEL-5 melanoma,1.63 µM
same,TGI,SK-MEL-5 melanoma,3.01 µM
same,GI50,A498 renal,1.78 µM
same,TGI,A498 renal,5.45 µM
same,GI50,SNB-75 CNS,2.23 µM
same,TGI,SNB-75 CNS,9.98 µM
same,GI50,SW-620 colon,3.6 µM
same,TGI,SW-620 colon,14.2 µM
same,GI50,COLO 205 colon,1.84 µM
same,TGI,COLO 205 colon,3.28 µM
same,GI50,SN12C renal,1.75 µM
same,TGI,SN12C renal,3.44 µM
same,GI50,HOP-92 NSCLC,1.91 µM
same,TGI,HOP-92 NSCLC,5.65 µM
same,GI50,M14 melanoma,3.21 µM
same,TGI,M14 melanoma,10.3 µM
same,GI50,UACC-62 melanoma,1.92 µM
same,TGI,UACC-62 melanoma,4.37 µM
same,GI50,OVCAR-5 ovarian,2.06 µM
same,TGI,OVCAR-5 ovarian,4.44 µM
same,GI50,A549 NSCLC,3.22 µM
same,TGI,A549 NSCLC,12.8 µM
same,GI50,BT-549 breast,2.47 µM
same,TGI,BT-549 breast,5.89 µM
same,GI50,MOLT-4 leukemia,2.36 µM
same,TGI,MOLT-4 leukemia,9.18 µM
same,GI50,CCRF-CEM leukemia,2.72 µM
same,TGI,CCRF-CEM leukemia,12 µM
same,GI50,NCI-H460 lung,2.54 µM
same,TGI,NCI-H460 lung,6.41 µM
same,GI50,OVCAR-8 ovarian,3.29 µM
same,TGI,OVCAR-8 ovarian,13.1 µM
same,GI50,MDA-MB-435,3.13 µM
same,TGI,MDA-MB-435,11.1 µM
